Experimental data taken from patent publication US20210002723A1, “METHODS FOR ASSESSING RESPONSIVENESS TO ASTHMA TREATMENT BASED ON VNN-1 EXPRESSION AND PROMOTER METHYLATION” (Children's Hospital Medical Center, priority 2014, published 2021).

Legend:
[1] = test system: VNN1−/− mice; assay: Experimental asthma model (repeated HDM exposure), response to dexamethasone in VNN1−/− mice; type: in vivo, mouse; details: dexamethasone 3 mg/kg i.p. last 5 days, mean ± SEM vs HDM-treated group
Protocol: (§1) The VNN1^−/− mice used in this study were described in Pitari et al., FEBS letters 2000; 483:149-54. Age- and sex-matched wild-type BALB/c mice were purchased from Harlan Laboratories (Indianapolis, Ind.). All mice were housed in a specific pathogen-free environment following routine practice.
(§2) Mice were exposed to intranasal doses of HDM (20 ug in 50 ul saline) or saline (0.9% NaCl, 50 ul; control group) 3 times a week for 3 weeks as previously described 18. Mice were treated with intra-peritoneal dexamethasone (3 mg/kg in dimethyl sulfoxide, (DMSO)) or DMSO (100 ul) for the last 5 days of the 3 week model. Airway hyperresponsiveness (AHR) was assessed 24 hours after the last HDM challenge using a flexiVent system (SCIREQ, Montreal, QC, Canada) as previously described. See, e.g., Brandt et al., J Allergy Clin Immunol., 2013; 132:1194-204 e2. Bronchoalveolar lavage fluid (BALF) was collected, processed, and inflammatory cells were quantified analyzed as previously described. See Brandt et al., 2013.
(§3) For the experimental asthma model results, individual AHR, total BALF cell counts and eosinophil percentage in mice treated with HDM plus dexamethasone were compared to and normalized by the corresponding mean value in the HDM-treated group. The data are presented as means±SEM. Difference between the WT and VNN1^−/− group was tested by non-parametric Mann Whitney test. A p-value<0.05 was considered significant. Percentage reduction was used to present the steroid response results.

[2] = test system: WT mice; assay: Experimental asthma model (repeated HDM exposure), response to dexamethasone in wild-type mice; type: in vivo, mouse (BALB/c); details: dexamethasone 3 mg/kg i.p. last 5 days, mean ± SEM vs HDM-treated group
Protocol: as §1, §2, §3

C[C@@H]1C[C@H]2[C@@H]3CCC4=CC(=O)C=C[C@]4(C)[C@@]3(F)[C@@H](O)C[C@]2(C)[C@@]1(O)C(=O)CO [Dexamethasone, dexamethasone]
average percentage reduction of AHR ([1]; 50 mg/ml methacholine): 55.2±4.9%
average percentage reduction of AHR ([1]; 100 mg/ml methacholine): 53.3%
reduction in eosinophils (BALF) [1]: 36.1%
reduction in total BALF cells [1]: 40.9%
average percentage reduction of AHR ([2]; 50 mg/ml methacholine challenge): 78.1%
average percentage reduction of AHR ([2]; 100 mg/ml methacholine challenge): 80.2%
reduction in eosinophils (BALF) [2]: 83.6±3.7%
reduction in total BALF cells [2]: 70.0±4.3%
